One data set addresses V600E-B-RAF (Homo sapiens (Human), UniProt P15056, V600E). Briefly: Protein kinase enzymatic activity (Reaction Biology kinase hotspot), V600E-B-RAF. To be noted: for IC50: read-out: Inhibitory effect against kinase activity of V600E-B-RAF (IC50); for Inhibitory effect against enzymatic activity of V600E-RAF, in words: compared with GW5074 and vemurafenib. The data set is classed as biochemical. As for the experimental part: (§1) Reaction biology kinase hotspot service (http://www.reactionbiology.com) was used to measure IC50. In a final reaction volume of 25 μL, kinase (5 mU to 10 mU) was incubated with 25 mM Tris (pH 7.5), 0.02 mM EGTA, 0.66 mg/ml of myelin basic protein, 10 mM magnesium acetate, and [^33P-ATP] (specific activity of about 500 CPM/pmol, concentration as required). The reaction was initiated by addition of Mg-ATP mix. After incubation for 40 min at room temperature, the reaction was stopped by addition of 5 μl of a 3% phosphoric acid solution. 10 μL of the reaction was then spotted onto a P30 filtermat and washed three times for 5 minutes in 75 mM phosphoric acid and once in methanol prior to drying and scintillation counting.

The target in the next data set is B-RAF (Homo sapiens (Human), UniProt P15056). The data set is described as follows: Protein kinase enzymatic activity (Reaction Biology kinase hotspot), B-RAF. The data set is classed as biochemical. To be noted: for Inhibitory effect against enzymatic activity of B-RAF, in words: compared with GW5074 and vemurafenib; for IC50: read-out: Inhibitory effect against kinase activity of B-RAF (IC50). As for the experimental part:
as §1

The target of the next data set is C-RAF (Homo sapiens (Human), UniProt P04049). Briefly: Protein kinase enzymatic activity (Reaction Biology kinase hotspot), C-RAF. The data set is classed as biochemical. To be noted: for Inhibitory effect against enzymatic activity of C-RAF, in words: compared with GW5074 and vemurafenib; for IC50: read-out: Inhibitory effect against kinase activity of C-RAF (IC50). As for the experimental part:
as §1

Data set [1] deals with A375P cell line xenograft. Briefly: Tumor-inhibitory effects in melanoma xenograft mouse model. The data set is classed as in vivo, nude mice. On the procedure: In this experiment, A375P cell line which is a human-derived malignant melanoma cell line was subcutaneously administered to nude mice to prepare xenograft models, and the test material (compound 2II) was administered to the xenograft models to evaluate anti-cancer effects (G1: an excipient control group, G2: a group administered with 20 mg/kg/day of the test material, and G3: a group administered with 50 mg/kg/day of the test material).

V600E-B-RAF, sequence (P15056 whole entry V600E): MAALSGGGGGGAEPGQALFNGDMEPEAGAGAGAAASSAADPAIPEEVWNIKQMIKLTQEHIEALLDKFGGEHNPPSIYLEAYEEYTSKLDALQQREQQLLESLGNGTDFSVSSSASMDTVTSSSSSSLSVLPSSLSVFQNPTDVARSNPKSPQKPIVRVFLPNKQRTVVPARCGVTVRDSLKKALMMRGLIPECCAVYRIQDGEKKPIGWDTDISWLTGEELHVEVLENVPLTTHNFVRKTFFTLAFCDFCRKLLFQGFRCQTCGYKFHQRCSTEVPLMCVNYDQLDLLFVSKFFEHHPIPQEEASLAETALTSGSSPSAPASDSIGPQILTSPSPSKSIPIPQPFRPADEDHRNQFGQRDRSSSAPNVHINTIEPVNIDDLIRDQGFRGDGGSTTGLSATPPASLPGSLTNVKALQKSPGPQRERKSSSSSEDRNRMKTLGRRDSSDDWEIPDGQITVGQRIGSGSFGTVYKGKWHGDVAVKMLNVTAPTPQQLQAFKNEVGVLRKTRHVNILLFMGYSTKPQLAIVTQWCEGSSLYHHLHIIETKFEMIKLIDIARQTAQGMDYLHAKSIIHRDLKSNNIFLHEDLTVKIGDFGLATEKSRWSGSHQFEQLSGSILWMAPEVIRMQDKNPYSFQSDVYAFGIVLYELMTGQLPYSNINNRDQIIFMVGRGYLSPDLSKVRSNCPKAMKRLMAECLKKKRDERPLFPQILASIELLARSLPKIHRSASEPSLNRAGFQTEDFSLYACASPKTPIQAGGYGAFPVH
B-RAF, sequence (P15056 whole entry): as the sequence (P15056 whole entry V600E) above, with E600V counted along it
C-RAF, sequence (P04049 whole entry): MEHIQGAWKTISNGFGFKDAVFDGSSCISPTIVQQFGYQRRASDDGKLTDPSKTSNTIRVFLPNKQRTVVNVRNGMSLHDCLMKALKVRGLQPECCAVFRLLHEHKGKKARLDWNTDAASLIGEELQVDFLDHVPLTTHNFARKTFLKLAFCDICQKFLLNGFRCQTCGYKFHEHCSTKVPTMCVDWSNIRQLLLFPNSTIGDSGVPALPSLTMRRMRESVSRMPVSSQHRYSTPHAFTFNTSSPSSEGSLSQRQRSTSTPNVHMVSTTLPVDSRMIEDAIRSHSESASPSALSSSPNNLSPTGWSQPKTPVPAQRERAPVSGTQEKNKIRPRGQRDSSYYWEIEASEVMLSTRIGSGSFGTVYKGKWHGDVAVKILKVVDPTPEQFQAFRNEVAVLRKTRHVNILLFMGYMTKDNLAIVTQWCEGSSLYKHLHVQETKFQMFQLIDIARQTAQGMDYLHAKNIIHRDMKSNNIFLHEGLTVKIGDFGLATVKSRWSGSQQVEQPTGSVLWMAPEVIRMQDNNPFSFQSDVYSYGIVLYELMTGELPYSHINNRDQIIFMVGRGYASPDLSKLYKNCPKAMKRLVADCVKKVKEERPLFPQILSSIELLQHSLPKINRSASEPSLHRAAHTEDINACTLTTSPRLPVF

Turning to `COc1cc(-c2nc3occn3c2-c2ccnc(NCCCNS(=O)(=O)c3ccc(Cl)cc3)n2)ccc1F` [60 IV, 4-chloro-N-(3-(4-(6-(4-fluoro-3-methoxyphenyl)imidazo[2,1-b]oxazol-5-yl)pyrimidin-2-ylamino)propyl)benzenesulfonamide], the IC50 at V600E-B-RAF came to 11.3 nM.

As for `O=S(=O)(NCCNc1nccc(-c2c(-c3ccc(F)c(O)c3)nc3occn23)n1)c1ccc(F)cc1` [64 IV, 4-fluoro-N-(2-(4-(6-(4-fluoro-3-hydroxyphenyl)imidazo[2,1-b]oxazol-5-yl)pyrimidin-2-ylamino)ethyl)benzenesulfonamide], on V600E-B-RAF, the half-inhibitory concentration (IC50) is 0.36 nM.

With `O=S(=O)(NCCNc1nccc(-c2c(-c3ccc(F)c(O)c3)nc3occn23)n1)c1ccc(Cl)cc1` [65 IV, 4-chloro-N-(2-(4-(6-(4-fluoro-3-hydroxyphenyl)imidazo[2,1-b]oxazol-5-yl)pyrimidin-2-ylamino)ethyl)benzenesulfonamide], at V600E-B-RAF, the IC50 was found to be 0.37 nM.

Take `O=S(=O)(NCCCNc1nccc(-c2c(-c3ccc(F)c(O)c3)nc3occn23)n1)c1ccc(Cl)cc1` [70 IV, 4-chloro-N-(3-(4-(6-(4-fluoro-3-hydroxyphenyl)imidazo[2,1-b]oxazol-5-yl)pyrimidin-2-ylamino)propyl)benzenesulfonamide]: at V600E-B-RAF, the IC50 was 0.15 nM.

Turning to `COc1ccc(S(=O)(=O)NCCCNc2nccc(-c3c(-c4ccc(F)c(O)c4)nc4occn34)n2)cc1` [72 IV, N-(3-(4-(6-(4-fluoro-3-hydroxyphenyl)imidazo[2,1-b]oxazol-5-yl)pyrimidin-2-ylamino)propyl)-4-methoxybenzenesulfonamide], the IC50 at V600E-B-RAF came out at 0.08 nM.

As to `O=S(=O)(NCCCNc1nccc(-c2c(-c3ccc(F)c(O)c3)nc3occn23)n1)c1ccccc1` [73 IV, N-(3-(4-(6-(4-fluoro-3-hydroxyphenyl)imidazo[2,1-b]oxazol-5-yl)pyrimidin-2-ylamino)propyl)benzenesulfonamide], on V600E-B-RAF, the IC50 amounted to 0.16 nM.

As for `CN1CCN(CCNc2nccc(-c3c(-c4cccc(O)c4)nc4occn34)n2)S1(=O)=O` [Compound 1II, 2-(2-((4-(6-(3-Hydroxylphenyl)imidazo[2,1-b]oxazol-5-yl)pyrimidin-2-yl)amino)ethyl)-5-methyl-1,2,5-thiadiazolidine 1,1-dioxide], the “Inhibitory effect against enzymatic activity of B-RAF, in words” value (from here on “Inhibitory effect … of B-RAF, in words”) at B-RAF is reported as “excellent inhibitory effects”. Moreover, on V600E-B-RAF, the “Inhibitory effect against enzymatic activity of V600E-RAF, in words” value (shortened to “Inhibitory effect … of V600E-RAF, in words”) is recorded as “excellent inhibitory effects”. At C-RAF, the “Inhibitory effect against enzymatic activity of C-RAF, in words” value (“Inhibitory effect … of C-RAF, in words” below) is listed as “excellent inhibitory effects” and the IC50 is 2.95 nM.

Turning to `CCN1CCN(CCNc2nccc(-c3c(-c4cccc(O)c4)nc4occn34)n2)S1(=O)=O` [Compound 2II, 2-Ethyl-5-(2-((4-(6-(3-hydroxylphenyl)imidazo[2,1-b]oxazol-5-yl)pyrimidin-2-yl)amino)ethyl)-1,2,5-thiadiazolidine 1,1-dioxide], the “Inhibitory effect … of B-RAF, in words” value at B-RAF is listed as “excellent inhibitory effects”. Besides, at V600E-B-RAF, the “Inhibitory effect … of V600E-RAF, in words” value is “excellent inhibitory effects”. Also, at C-RAF, the “Inhibitory effect … of C-RAF, in words” value is given as “excellent inhibitory effects” and the IC50 is 0.75 nM. Besides, in data set [1] (20 and 50 mg/kg/day, twice per week for 3 weeks), the “General symptoms and deaths” value is “no deaths or no abnormalities in general symptoms were observed”. The “Tumor size, difference between all experimental groups” value in data set [1] (G1, G2, G3) is listed as “no significant difference”. The “Body weight compared with control group (G1)” value in data set [1] (G3, 50 mg/kg/day, 14 days and 21 days after administration) is on record as “significantly low”. In addition, the “Increase of the tumor size” value in data set [1] (groups administered with 20 and 50 mg/kg/day) is reported as “inhibited in a dose-dependent manner”.

In the case of `O=S(=O)(NCCNc1nccc(-c2c(-c3cccc(O)c3)nc3sccn23)n1)c1ccc(F)cc1` [Compound 25III, 4-Fluoro-N-(2-((4-(6-(3-hydroxylphenyl)imidazo[2,1-b]thiazol-5-yl)pyrimidin-2-yl)amino)ethyl)benzenesulfonamide], at B-RAF, the “Inhibitory effect … of B-RAF, in words” value was “excellent inhibitory effects”. Besides, on V600E-B-RAF, the “Inhibitory effect … of V600E-RAF, in words” value is recorded as “excellent inhibitory effects”. Further, the “Inhibitory effect … of C-RAF, in words” value on C-RAF is listed as “excellent inhibitory effects”.

In the case of `O=S(=O)(NCCCNc1nccc(-c2c(-c3cccc(O)c3)nc3sccn23)n1)c1ccc(F)cc1` [Compound 31III, 4-Fluoro-N-(3-((4-(6-(3-hydroxylphenyl)imidazo[2,1-b]thiazol-5-yl)pyrimidin-2-yl)amino)propyl)benzenesulfonamide], the “Inhibitory effect … of B-RAF, in words” value on B-RAF is “excellent inhibitory effects”. Also, at V600E-B-RAF, the “Inhibitory effect … of V600E-RAF, in words” value was “excellent inhibitory effects”. In addition, the “Inhibitory effect … of C-RAF, in words” value at C-RAF was “excellent inhibitory effects”.

As to `CCN1CCN(CCNc2nccc(-c3c(-c4ccc(F)c(O)c4)nc4sccn34)n2)S1(=O)=O` [Compound 31II], the IC50 at B-RAF is 4.19 nM; on V600E-B-RAF it was 0.98 nM; at C-RAF it was 7.83 nM.

For `COc1cc(-c2nc3sccn3c2-c2ccnc(NCCCNS(=O)(=O)c3ccc(F)cc3)n2)ccc1F` [Compound 37III, 4-Fluoro-N-(3-((4-(6-(4-fluoro-3-methoxyphenyl)imidazo[2,1-b]thiazol-5-yl)pyrimidin-2-yl)amino)propyl)benzenesulfonamide], the values for the IC50 on B-RAF, at V600E-B-RAF and at C-RAF were 8.8 nM, 1.66 nM and 13.8 nM, respectively.

As for `COc1cc(-c2nc3sccn3c2-c2ccnc(NCCCNS(=O)(=O)c3ccc(Cl)cc3)n2)ccc1F` [Compound 38III, 4-chloro-N-(3-(4-(6-(4-fluoro-3-methoxyphenyl)imidazo[2,1-b]thiazol-5-yl)pyrimidin-2-ylamino)propyl)benzenesulfonamide], the IC50 on V600E-B-RAF stood at 1.89 nM.

As to `O=S(=O)(NCCCNc1nccc(-c2c(-c3ccc(F)c(O)c3)nc3sccn23)n1)c1ccc(F)cc1` [Compound 42III, 4-Fluoro-N-(3-((4-(6-(4-fluoro-3-hydroxyphenyl)imidazo[2,1-b]thiazol-5-yl)pyrimidin-2-yl)amino)propyl)benzenesulfonamide], the IC50 at V600E-B-RAF stood at 0.36 nM.

For `O=S(=O)(NCCNc1nccc(-c2c(-c3ccc(F)c(O)c3)nc3sccn23)n1)c1ccc(Cl)cc1` [Compound 43III, 4-chloro-N-(2-(4-(6-(4-fluoro-3-hydroxyphenyl)imidazo[2,1-b]thiazol-5-yl)pyrimidin-2-ylamino)ethyl)benzenesulfonamide], the IC50 on V600E-B-RAF worked out at 6.96 nM.

In the case of `O=S(=O)(NCCNc1nccc(-c2c(-c3ccc(F)c(O)c3)nc3sccn23)n1)c1ccccc1` [Compound 46III, N-(2-(4-(6-(4-fluoro-3-hydroxyphenyl)imidazo[2,1-b]thiazol-5-yl)pyrimidin-2-ylamino)ethyl)benzenesulfonamide], the IC50 on V600E-B-RAF was determined as 0.15 nM.

As for `O=S(=O)(NCCCNc1nccc(-c2c(-c3ccc(F)c(O)c3)nc3sccn23)n1)c1ccc(Cl)cc1` [Compound 48III, 4-chloro-N-(3-(4-(6-(4-fluoro-3-hydroxyphenyl)imidazo[2,1-b]thiazol-5-yl)pyrimidin-2-ylamino)propyl)benzenesulfonamide], at V600E-B-RAF, the half-inhibitory concentration (IC50) worked out at 0.27 nM.

Consider `COc1ccc(S(=O)(=O)NCCCNc2nccc(-c3c(-c4ccc(F)c(O)c4)nc4sccn34)n2)cc1` [Compound 50III, N-(3-(4-(6-(4-fluoro-3-hydroxyphenyl)imidazo[2,1-b]thiazol-5-yl)pyrimidin-2-ylamino)propyl)-4-methoxybenzenesulfonamide], for which the IC50 on V600E-B-RAF stood at 0.05 nM.

As for `Nc1cc(-c2nc3sccn3c2-c2ccnc(NCCCNS(=O)(=O)c3ccc(F)cc3)n2)ccc1F` [Compound 52III, N-(3-((4-(6-(3-amino-4-fluorophenyl)imidazo[2,1-b]thiazol-5-yl)pyrimidin-2-yl)amino)propyl)-4-fluorobenzenesulfonamide], the values for the IC50 on B-RAF, on V600E-B-RAF and at C-RAF were 2.68 nM, 1.03 nM and 5.41 nM, respectively.

As usually defined, the IC50 is the concentration needed to halve the response being measured.

Values taken from patent US11332479B2, “Imidazooxazole derivative having antitumor effect, and pharmaceutical composition including same” (KOREA INSTITUTE OF SCIENCE AND TECHNOLOGY, priority 2016, dated 2022).
